Results as given in ChEMBL document CHEMBL1201862, “PubChem BioAssay data set” (2004).
Several values for one entry are separate records, joined by “and”; a condition that tells them apart may be missing. Identical values can stand only once.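 These data come from cells grown in 96-well plates and exposed to compound for 48 hours at five concentrations. GI50 is the concentration that inhibits growth by half.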 Activity calls are given as the source filed them. Rule as the data show it: active = GI50 up to about 1.1 µM and inactive = higher.

Experiments:
Assay in all cases: inhibition of tumour cell growth, NCI panel, 48 h
OVCAR-5 = system: OVCAR-5
BT-549 = system: BT-549
MDA-N = system: MDA-N
HCT-116 = system: HCT-116
MCF7 = system: MCF7
DU-145 = system: DU-145
COLO 205 = system: COLO 205
RXF 393 = system: RXF 393
SN12C = system: SN12C
SNB-19 = system: SNB-19
Malme-3M = system: Malme-3M
EKVX = system: EKVX
OVCAR-4 = system: OVCAR-4
SK-MEL-28 = system: SK-MEL-28
T47D = system: T47D
MDA-MB-231 = system: MDA-MB-231
SF-295 = system: SF-295
HL-60 = system: HL-60
TK-10 = system: TK-10
M14 = system: M14
A549 = system: A549
786-0 = system: 786-0
HT-29 = system: HT-29
SW-620 = system: SW-620
SK-MEL-5 = system: SK-MEL-5
HOP-92 = system: HOP-92
ACHN = system: ACHN
NCI-H460 = system: NCI-H460
OVCAR-8 = system: OVCAR-8
HCC 2998 = system: HCC 2998
NCI-H23 = system: NCI-H23
SF-268 = system: SF-268
NCI/ADR-RES = system: NCI/ADR-RES
SNB-75 = system: SNB-75
LOX IMVI = system: LOX IMVI
SK-OV-3 = system: SK-OV-3
UACC-257 = system: UACC-257
CAKI-1 = system: CAKI-1
SR = system: SR
OVCAR-3 = system: OVCAR-3
MOLT-4 = system: MOLT-4
NCI-H226 = system: NCI-H226
CCRF-CEM = system: CCRF-CEM
A498 = system: A498
K562 = system: K562
MDA-MB-435 = system: MDA-MB-435
RPMI-8226 = system: RPMI-8226
IGROV-1 = system: IGROV-1
UO-31 = system: UO-31
Hs-578T = system: Hs-578T
KM12 = system: KM12
PC-3 = system: PC-3
NCI-H522 = system: NCI-H522

Measured: GI50

C=CCN1C(=O)/C(=C/c2ccc(C)cc2)N=C1SC1OC(COC(C)=O)C(OC(C)=O)C(OC(C)=O)C1OC(C)=O (stereo not drawn)
inactive: OVCAR-5 53.2 µM and > 82.8 µM | BT-549 25.3 µM and 23.3 µM | MDA-N > 100 µM | HCT-116 34.1 µM | MCF7 39.4 µM and 34.8 µM | DU-145 33.9 µM and > 45.3 µM | COLO 205 59.4 µM | RXF 393 11.6 µM and 8.43 µM | SN12C > 100 µM | SNB-19 > 100 µM | Malme-3M 39.2 µM | EKVX 51.8 µM | OVCAR-4 7.83 µM | SK-MEL-28 > 100 µM | T47D 14.4 µM | MDA-MB-231 28.7 µM and 27.5 µM | SF-295 60.1 µM | HL-60 > 76.4 µM | TK-10 > 100 µM | M14 68.7 µM | A549 > 100 µM | 786-0 3.4 µM | HT-29 > 100 µM

CC(NC(=O)OC(C)(C)C)C(=O)NC1CCCC1 (stereo not drawn)
inactive: OVCAR-5 > 100 µM | SW-620 > 100 µM | SK-MEL-5 > 100 µM | MDA-N > 100 µM | HCT-116 > 100 µM | HOP-92 > 100 µM | ACHN > 100 µM | MCF7 > 100 µM | NCI-H460 > 100 µM | DU-145 > 100 µM | OVCAR-8 > 100 µM | COLO 205 > 100 µM | HCC 2998 > 100 µM | RXF 393 > 100 µM | SN12C > 100 µM | NCI-H23 > 100 µM | SNB-19 > 100 µM | Malme-3M > 100 µM | SF-268 > 100 µM | NCI/ADR-RES > 100 µM | SNB-75 > 100 µM | LOX IMVI > 100 µM | EKVX > 100 µM | OVCAR-4 > 100 µM | SK-MEL-28 > 100 µM | SK-OV-3 > 100 µM | UACC-257 > 100 µM | CAKI-1 > 100 µM | SR > 100 µM | SF-295 > 100 µM | OVCAR-3 > 100 µM | MOLT-4 > 100 µM | NCI-H226 > 100 µM | CCRF-CEM > 100 µM | HL-60 > 100 µM | A498 > 100 µM | TK-10 > 100 µM | K562 > 100 µM | M14 > 100 µM | MDA-MB-435 > 100 µM | RPMI-8226 > 100 µM | IGROV-1 > 100 µM | UO-31 > 100 µM | Hs-578T > 100 µM | A549 > 100 µM | KM12 > 100 µM | 786-0 > 100 µM | HT-29 > 100 µM | PC-3 > 100 µM | NCI-H522 > 100 µM
